The source of these data is article PMC6889490, “General structural features that regulate integrin affinity revealed by atypical αVβ8” (Nature Communications, 2019).

For experiment [1], the system named is αVβ8 headpiece. Put plainly: Hydrogen-deuterium exchange MS, αVβ8 headpiece. The conditions noted are these: 2.20 µM αVβ8, 6.67 µM TGF-β1 ligand peptide; from KD. The protocol: Two microliters of αVβ6 and αVβ8 stock solutions (23 and 33 µM, respectively), either alone or mixed with 100 µM TGF-β1 ligand peptide, were diluted 15-fold (to 1.53 and 2.20 µM, αVβ6 and αVβ8, respectively, and 6.67 µM TGF-β1 ligand peptide) with labeling buffer (Supplementary Table 1) at 21 °C to initiate deuterium exchange. […] At time points from 10 s to 240 m, an aliquot was removed and an equal volume of quench buffer (Supplementary Table 1) was added to adjust the pH to 2.5. Each sample (46 pmol αVβ6 or 66 pmol αVβ8) was immediately subjected to liquid chromatography-mass spectrometry analysis as described in the next paragraphs and in our PRIDE submission (PXD014348). For binding experiments, protein and ligand were allowed to equilibrate for 20 min at 21 °C before deuterium labeling.
Deuterated and control samples were digested in solution with pepsin (10 mg/ml, Sigma P6887; Lot#SLBL1721V) for 5 min on ice, and then injected into an M-class Acquity UPLC with HDX technology (Waters)[32]. […]
Peptides were identified using PLGS 3.0.1 (Waters, 720001408EN) using six replicates of undeuterated αVβ6 and six replicates of undeuterated αVβ8. […] The relative amount of deuterium in each peptide was determined by subtracting the centroid mass of the undeuterated form of each peptide from the deuteratered form, at each time point, for each condition. […]

Experiment [2] deals with T1, αVβ8-mut6 headpiece (Homo sapiens, UniProt P06756+P26012, K165T/M430C/N161D/N162D/V301C).
T1 construct: residues 1–594 of the αV-subunit and 1–456 of the β8-subunit; made in house; host or cells: Expi293 cells (transient)
T1 sequence (P06756 31-624 M430C): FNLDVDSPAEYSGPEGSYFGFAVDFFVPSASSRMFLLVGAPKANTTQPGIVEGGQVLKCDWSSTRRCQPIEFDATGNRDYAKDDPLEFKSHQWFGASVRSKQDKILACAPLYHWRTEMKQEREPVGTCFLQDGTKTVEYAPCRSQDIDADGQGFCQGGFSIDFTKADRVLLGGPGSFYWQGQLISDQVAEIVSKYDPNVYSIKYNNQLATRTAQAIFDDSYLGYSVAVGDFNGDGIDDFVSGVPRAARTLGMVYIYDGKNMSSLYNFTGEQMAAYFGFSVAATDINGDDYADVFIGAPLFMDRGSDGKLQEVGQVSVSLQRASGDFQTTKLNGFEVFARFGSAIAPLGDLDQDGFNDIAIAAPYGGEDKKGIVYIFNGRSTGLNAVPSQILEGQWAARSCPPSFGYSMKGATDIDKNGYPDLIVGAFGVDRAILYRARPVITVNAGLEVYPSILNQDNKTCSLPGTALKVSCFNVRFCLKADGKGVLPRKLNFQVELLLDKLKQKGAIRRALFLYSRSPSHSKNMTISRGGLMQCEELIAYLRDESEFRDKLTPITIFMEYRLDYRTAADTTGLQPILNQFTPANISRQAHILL
T1 sequence (P26012 43-498 N161D/N162D/K165T/V301C): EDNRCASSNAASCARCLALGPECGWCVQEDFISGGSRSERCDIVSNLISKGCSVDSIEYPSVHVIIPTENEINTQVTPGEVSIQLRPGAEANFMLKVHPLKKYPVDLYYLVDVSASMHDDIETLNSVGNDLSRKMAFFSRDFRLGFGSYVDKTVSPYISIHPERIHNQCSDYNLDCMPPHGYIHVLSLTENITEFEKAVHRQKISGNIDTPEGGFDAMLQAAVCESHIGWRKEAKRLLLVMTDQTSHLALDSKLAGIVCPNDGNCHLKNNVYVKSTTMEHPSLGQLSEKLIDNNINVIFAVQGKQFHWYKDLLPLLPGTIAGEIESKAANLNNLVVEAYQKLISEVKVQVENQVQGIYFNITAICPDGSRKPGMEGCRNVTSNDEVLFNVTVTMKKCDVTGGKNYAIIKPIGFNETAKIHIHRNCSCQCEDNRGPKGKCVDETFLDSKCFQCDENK
Briefly: Negative stain EM headpiece opening, αVβ8-mut6. The conditions noted are these: 1 mM Mn2+/0.2 mM Ca2+. An excerpt: Fig. 7 Regulation of ligand-binding affinity by atypical and typical residues in αVβ8 and αVβ6. a Mutations corresponding to sequence exchanges between αVβ8 (black) and αVβ6 (red) and effect on affinity for FITC-labeled TGF-β3 ligand peptide (GRGDLGRLKK) in presence of Mg^2+ and Mn^2+. […] As in statistical models for determining p values, the fit assumes that errors are independent and normally distributed. The reported fit minimizes the sum of the squared errors. […] Source data for a, b are provided as a Source Data file. c Representative negative stain class averages of mutant or WT integrin headpieces alone (upper panels) or complexed with pro-TGF-β1. Representative 2:1 pro-TGF-β1:integrin class averages are shown. The WT integrin class averages shown for comparison are previously published. d, e Residues in regions of βI domain allostery with unusual properties in αVβ8 (d) are compared to counterparts in αVβ6 (e). […] Mn^2+: 0.37 [0.18, 0.55] […]
αVβ8-mut3 or αVβ8-mut6 (15 μg) were mixed with pro-TGF-β1 at molar ratio 1.5:1 in 50 μl of HBS buffer containing 1 mM Mn^2+/0.2 mM Ca^2+ for 30 min and injected in a 24 ml Superdex 75 gel filtration column pre-equilibrated with HBS buffer (20 mM HEPEs, pH 7.5, 150 mM NaCl, 1 mM Mn^2+/0.2 mM Ca^2+). The 2:2, 2:1 complexes and unbound αVβ8 and pro-TGF-β1 were well separated. […]

The target in experiment [3] is T2, αVβ8-WT headpiece (Homo sapiens, UniProt P06756+P26012, M430C/V301C).
T2 construct: residues 1–594 of the αV-subunit and 1–456 of the β8-subunit; made in house; host or cells: HEK293S GntI−/− cells
T2 sequence (P06756 31-624 M430C): as the sequence (P06756 31-624 M430C) above
T2 sequence (P26012 43-498 V301C): as the sequence (P26012 43-498 N161D/N162D/K165T/V301C) above, with D119N, D120N, T123K counted along it
The conditions noted are these: Mn2+; negative stain EM; cited from earlier work.

Experiment [4] deals with D8/D9 αVβ8. Particulars: D8/D9 αVβ8 compared to WT; cited from earlier work. An excerpt:
Mn^2+ increases affinity of αVβ6 in part by stabilizing headpiece opening. […] Results with αVβ8 were more complex. Substitution of one or both A ...

“Also recorded” adds a separate entry of the source.

As for “G^213RRGDLATIHG^223 [TGF-β1 ligand peptide]”, in experiment [1], the “predicted binding to integrin” value is given as 99.6%. For “pro-TGF-β1: Human pro-TGFβ-1 with a R249A cleavage site mutation”, the “headpiece conformation when bound to pro-TGF-β1” value in experiment [2] is listed as “remained closed; also recorded: neither mutant showed the open headpiece”; in experiment [3], “remained closed”.

As to “vitronectin: vitronectin, integrin ligand measured in cell binding in a cited study”, the “amount of vitronectin binding to cells” value in experiment [4] is given as “decreased binding of D8/D9 αVβ8 compared to WT”.
